Laboratory results: the NIST ThermoML archive (doi:10.1021/je900598y)

Legend:
[1] = excess molar enthalpy (molar enthalpy of mixing); xn = mol fraction of the nth substance listed; details: 298.15 K, Liquid, Calvet calorimetry
[2] = 298.15 K; 101.33 kPa; Liquid

CCCCCC(=O)OC(=O)CCCCC [caproic anhydride] + CCCCCCCCCCCCCC
[1]
Details	excess molar enthalpy [kcal/mol]
x1 = 0.0274	0.0479
x1 = 0.0533	0.0863
x1 = 0.0779	0.118
x1 = 0.1012	0.144
x1 = 0.1234	0.166
x1 = 0.1445	0.185
x1 = 0.1681	0.203
x1 = 0.1904	0.219
x1 = 0.2115	0.232
x1 = 0.2316	0.247
x1 = 0.2372	0.25
x1 = 0.2431	0.253
x1 = 0.2493	0.256
x1 = 0.2559	0.259
x1 = 0.2628	0.263
x1 = 0.2691	0.266
x1 = 0.2757	0.269
x1 = 0.2826	0.272
x1 = 0.2899	0.275
x1 = 0.2975	0.278
x1 = 0.3056	0.281
x1 = 0.3129	0.284
x1 = 0.3204	0.286
x1 = 0.3284	0.289
x1 = 0.3368	0.291
x1 = 0.3456	0.294
x1 = 0.3548	0.296
x1 = 0.363	0.298
x1 = 0.3715	0.3
x1 = 0.3805	0.301
x1 = 0.3899	0.303
x1 = 0.3998	0.305
x1 = 0.4012	0.306
x1 = 0.4103	0.307
x1 = 0.4199	0.308
x1 = 0.4299	0.309
x1 = 0.4404	0.31
x1 = 0.4514	0.31
x1 = 0.463	0.31
x1 = 0.4734	0.31
x1 = 0.4843	0.31
x1 = 0.4958	0.309
x1 = 0.5077	0.308
x1 = 0.5203	0.307
x1 = 0.5335	0.305
x1 = 0.5453	0.303
x1 = 0.5575	0.3
x1 = 0.5703	0.297
x1 = 0.5838	0.294
x1 = 0.5979	0.29
x1 = 0.6126	0.286
x1 = 0.6261	0.281
x1 = 0.6401	0.277
x1 = 0.6548	0.271
x1 = 0.6702	0.265
x1 = 0.6863	0.258
x1 = 0.7032	0.249
x1 = 0.7185	0.242
x1 = 0.7345	0.232
x1 = 0.7512	0.223
x1 = 0.7686	0.212
x1 = 0.7869	0.2
x1 = 0.8038	0.188
x1 = 0.8214	0.175
x1 = 0.8397	0.16
x1 = 0.8589	0.145
x1 = 0.879	0.127
x1 = 0.9001	0.108
x1 = 0.9185	0.0894
x1 = 0.9376	0.07
x1 = 0.9575	0.0488
x1 = 0.9783	0.0255

CCCCCCCCCCCCCC [tetradecane]
Details	mass density [kg/m3]
[2]	760.2

CCCCC(=O)OC(=O)CCCC [pentanoic anhydride]
Details	mass density [kg/m3]
[2]	939.15

CCCCCC(=O)OC(=O)CCCCC [caproic anhydride]
Details	mass density [kg/m3]
[2]	923.96
